Publication PMC8868285, “Pharmacological Inhibition of Epac1 Averts Ferroptosis Cell Death by Preserving Mitochondrial Integrity” (Antioxidants, 2022)

Columns and labels:
HT-22 cells [1] = assay: Cell death assessment, FACS analysis of PI staining
Protocol: Flow cytometry analysis using the CytoFLEXS benchtop flow cytometer (Beckman Coulter Life Sciences, Indianapolis, IN, USA) was used to evaluate intracellular parameters that are associated with not only oxidative stress but also mitochondrial dysfunction, and cell death. HT-22 cells (40,000 cells/well) seeded in 24-well plates were treated with various conditions. Treatment groups included: control condition (DMSO 1%), erastin 1 µM or 1.5 µM, CE3F4 100 µM, and co-treatment of erastin and CE3F4. Three separate wells were analyzed for each condition and the same number of counts (10,000/well) were measured by flow cytometry. At least three independent experiments were performed, and the Kaluza Analysis 1.5 software was employed for quantification of data.
The amount of cell death after stimulation with erastin for 16–17 h was assessed by incubating trypsonized HT-22 cell suspension with propidium iodide (PI) (Invitrogen, Oregon City, OR, USA, #V13242, Lot #2008168) in a binding buffer. Incubation with the dye was for 30 min at RT. Fluorescence was detected at 494/518 and 535/617 for FITC and PI respectively.

HT-22 cells [2] = assay: Mitochondrial morphology (MitoTracker Deep Red, categories I-III); assay type: cell-based, mouse
Protocol: Mitochondrial morphology was assessed using imaging of HT-22 cells stained with MitoTracker™Deep Red FM (Invitrogen, Oregon City, OR, USA, #M22426). Cells were treated with either erastin 1 µM, CE3F4 100 µM, or co-treated with erastin 1 µM and CE3F4 100 μM for 18 h. After the treatment, cells were incubated with 200 nM MitoTracker™Deep Red FM for 30 min at 37 °C. Untreated cells were included as controls. 4% paraformaldehyde (PFA) was used for fixation and detection of the MitoTracker fluorescence was achieved by 620 nm (excitation) and 700 ± 75 nm (detection). 500 cells per condition were counted and grouped into three different categories, based on their mitochondrial morphology/shape. The analysis and categorization of mitochondria was done by an investigator without previous knowledge of the various experimental conditions. Category I included healthy cells with mitochondria that form an elongated tubular network that is distributed equally throughout the cytosol. It could also include short mitochondria, but distributed in the cytosol. On the other hand, Category II included cells which contained large, and fragmented/granulated mitochondria around the nucleus. […] Category III represented damaged and dying cells with observed small rounded mitochondria of varying sizes and in proximity to the nucleus.. At least three independent experiments were performed.

HT-22 cells [3] = assay: Soluble ROS, CM-DCF FACS; assay type: cell-based, mouse
Protocol: Soluble ROS was evaluated by CM-DCF fluorescent dye (Invitrogen, Oregon City, OR, USA). CM-DCF passively diffuses into cells, and reacts with glutathione and other thiols following cleavage by intracellular esterases, which in turn exposes the thiol-reactive chloromethyl group. The oxidation that follows results in a fluorescent adduct that is ensnared within the cell. The higher the fluorescence, the more cellular ROS is produced in the cells.

Epac1 = conditions: CE3F4, Epac1 inhibitor; cited from earlier work
HT-22 cells [4] = assay: Extracellular flux analysis (Seahorse), oxygen consumption rate; assay type: cell-based, mouse
Protocol: Cellular Oxygen Consumption Rate (OCR) was measured by using an XFe96 extracellular flux analyzer (Seahorse Bioscience, Billerica, MA, USA) which also entailed the mitochondrial stress test as described previously. HT-22 cells (10,000 cells/well) were seeded onto the XFe96-well cell culture microplate and incubated at 37 °C, 5% CO2. 24 h before the assay, the growth medium was replaced with a fresh medium containing either DMSO 1%, erastin 1 µM, CE3F4 alone, ESI-05 alone or a co-treatment of erastin with either CE3F4 or ESI-05. Cells in 180 μL of assay non-buffered DMEM medium supplemented with 2 mM glutamine, 4.5 g/L glucose and 1 mM pyruvate, pH 7.35 were incubated for 1 h in a CO2 free incubator at 37 °C. Basal respiration was measured before injecting the inhibitors that included; oligomycin (4 μM; port A)—an ATP synthase inhibitor; 2,4-dinitrophenol (DNP) (Sigma–Aldrich Chemie GmbH, Steinheim, Germany, #34334) (50 μM; port B)—a mitochondrial oxidative phosphorylation uncoupler; and rotenone (Sigma–Aldrich Chemie GmbH, Steinheim, Germany, #R8875) together with antimycin A (Sigma–Aldrich Chemie GmbH, Steinheim, Germany, #A8674) 0.1 μM and 1 μM; port C)—complex I and complex III inhibitors. By using the BCA assay, OCR measurements were normalized to the protein amount in every well. Three independent experiments with six wells per condition were performed, and a one-way ANOVA test was used to determine statistical significance among different groups.

HT-22 cells [5] = assay: xCELLigence real-time cell impedance measurement; assay type: cell-based, mouse; conditions: ≥30 µM CE3F4 (30 and 100 μM), erastin 1 μM
Protocol: Cell viability and metabolic activity of cells was first assessed using a colorimetric 3-(4,5-dimethylthiazol-2-yl)-2,5-diphenyltetrazolium Bromide (MTT) (Sigma–Aldrich Chemie GmbH, Steinheim, Germany, #M5655) reduction assay. Cells in a 96-well plate format (8–10,000 cells/well) were incubated with the MTT solution (0.5 mg/mL) for a maximum of 1 h at 37 °C. Afterward, the MTT-containing solution was entirely removed, and the 96-well plate was incubated at −80 °C for at least 2 h. To allow formazan to uniformly disperse in the medium, dimethyl sulfoxide (DMSO) (Sigma–Aldrich Chemie GmbH, Steinheim, Germany, #D8418, Lot# SHBH9942) was administered to the cells for 1 h at 37 °C with continuous shaking. The absorbance values were determined by Synergy™H1 (Bad Friedrichshall, Germany) Hybrid MultiMode Reader at 570 nm with a 630 nm reference filter. The absorbance values of untreated healthy cells or cells treated with DMSO 1% (used as a solvent for various pharmacological applications) were regarded as 100% of cell viability. […] HT-22 cells were treated with the following conditions: control condition (solvent), drug of interest, erastin, and pre- or co-treatment with erastin and drug of interest. […] Continuous cell monitoring was performed by using an E-plate 96 and the cellular impedance or cell resistance was assessed every 15 min for 24 h.

[6] = CE3F4 + erastin 1 μM vs erastin alone

SMILES: CC1CCc2c(cc(Br)c(F)c2Br)N1C=O (stereo not shown) [CE3F4]
- effect on erastin-induced cell death (PI staining) (HT-22 cells [1]; co-treatment 30 μM CE3F4 + erastin 1 μM): markedly attenuated
- effect on erastin-induced cell death (PI staining) (HT-22 cells [1]; co-treatment 100 μM CE3F4 + erastin 1 μM): markedly attenuated
- mitochondrial morphology, category III (HT-22 cells [2]; 30 µM CE3F4 + erastin 1 μM vs erastin alone): significant decrease of category III mitochondrial fragmentation
- mitochondrial morphology (HT-22 cells [2]; 100 μM CE3F4 + erastin 1 μM): completely abolished the effects of erastin on mitochondrial morphology
- mitochondrial morphology (HT-22 cells [2]; CE3F4 alone (100 µM)): did not alter mitochondrial morphology
- intracellular ROS production (CM-DCF) (HT-22 cells [3]; 100 μM CE3F4 + erastin vs erastin alone, not restored to control levels): significant decrease in intracellular ROS production
- total intracellular ROS production (CM-DCF) (HT-22 cells [3]; 100 μM CE3F4 alone): did not influence the amount of total intracellular ROS production
- IC50 (Epac1): 23 ± 3 µM
- maximal respiration (HT-22 cells [4]; 100 μM CE3F4 alone): increased maximal respiration
- ATP-linked OCR (HT-22 cells [4]; [6]): did not reach statistical significance
- basal OCR (HT-22 cells [4]; [6]): did not reach statistical significance
- maximal OCR (HT-22 cells [4]; [6]): significantly increased
- protection against erastin-induced cell death (cell impedance) (HT-22 cells [5]): markedly prevented erastin-induced cell death
